In US12076307B2, “Compositions for prevention or treatment of acute radiation syndrome and other radiation exposure” (priority 2017, dated 2024):
Like-named read-outs stand apart in the source and are kept apart here.

Key:
[1] = tested on: BALB/c mice, 6.11 Gy γ-radiation TBI; assay: LD70/30 (6.11 Gy) ARS model: survival, life span, body weight, EC-18 10/50/250 mg/kg; format: in vivo, mouse; conditions: for improvement of survival vs control group / ≥10% Body Weight Loss, % / ≥20% Body Weight Loss, % / Average life span / Median survival / No. of mice that survived/total / Survivability / Survival: 6.11 Gy; for No. of mice that survived/total / Survivability / Survival: 30 days
Protocol: For the experiments to determine survival rate following LD70/30 dose 6.11 Gy of γ-irradiation (TBI, ^60Co, 0.833Gy min-1), mice were grouped 20 (10 males and 10 females) per treatment cohorts; γ-radiation only cohort (positive control), γ-radiation with EC-18 10 mg/kg cohort, γ-radiation with EC-18 50 mg/kg cohort, and γ-radiation with EC-18 250 mg/kg cohort. EC-18 (Enzychem Lifesciences, Jaecheon, Republic of Korea) was suspended in PBS and orally administrated once a day, starting 1 day after irradiation. The positive control group was administrated PBS. The survival and body weight of the animals were recorded daily for 30 days.
All data are presented as the mean t standard deviation (SD). A paired Log rank (Mantel-Cox) test of survival curve was applied to estimate the significance on survival rate and to compare the duration of neutropenia between control and EC-18-treated cohorts. Average life span was calculated as the sum of the life span for all mice/total number of mice. For comparison of the statistical differences of more than two groups, one-way ANOVA test was used. All other statistical analyses were performed using a Student's paired t test and p values<0.05 were considered statistically significant.
The purpose of this study was to investigate the dose-effect of EC-18 on increasing the survival in mice after exposure to γ-radiation to the entire body. Eleven-week-old male and female BALB/c mice (10 females and 10 males; 20 animals per study group) were tested for the LD70/30 study. This study is consisted of 4 experimental groups; γ-radiation only group, and γ-radiation with EC-18 treatment groups at 10, 50, or 250 mg/kg.

[2] = Whole blood and lymphatic radioactivity in rats after single oral [14C]EC-18 100 mg/kg; format: in vivo, rat; conditions: 100 mg/kg oral; for Tmax: n=3, 100 mg/kg
Protocol: Male SD rats in fasted condition were administered a single dose of [^14C]EC-18 (oral dose of 100 mg/kg; vehicle: olive oil), and the radioactive concentration of the EC-18 was measured in whole blood samples at 0.5, 1, 2, 3, 4, 6, and 8 hrs after its administration. In parallel, male rats with a cannula inserted into the intestinal tract were administered a single dose of [^14C]EC-18 (oral dose of 100 mg/kg; vehicle: olive oil) and the concentration of EC-18-related radioactivity was measured in lymphatic fluid collected in conscious rats at 0.5, 1, 2, 3, 4, 6, and 8 hrs after its administration (FIG. 60). Then, the values of PK parameters were calculated using the quantitative data from whole blood and lymphatic fluid samples (Table 20). Following a single oral administration of [14C]EC-18, EC-18 concentration in the lymphatic fluid of rats was 10 to 53 times higher than that in whole blood (FIG. 60).

CYP1A2 = format: in vitro ADME, human; conditions: for Enzyme Activity CYP1A2: n=3
NZW rabbit = assay: Embryo-fetal developmental toxicity study, NZW rabbit; format: in vivo; conditions: Oral 13 days
Excerpt: (§1) Various toxicology studies have been performed. All studies were GLP-compliant unless otherwise noted.

[3] = as above; format: in vivo; conditions: NZW, rabbit, in vivo; definitive study; Oral 13 days
Excerpt: as §1

[4] = tested on: Chinese hamster lung cells (CHL/IU); assay: Chromosomal aberration test; format: cell-based; conditions: 6 and 24 hrs; with or without metabolic activation
Excerpt: as §1

SD rat = assay: Embryo-fetal developmental toxicity study, SD rat; format: in vivo; conditions: for mortality: 0, 500, 1000, 2000 mg/kg
Excerpt: as §1

[5] = Embryo-fetal developmental toxicity study, SD rat; format: in vivo; conditions: SD, rat, in vivo; definitive study; Oral 11 days
Excerpt: as §1

[6] = In vitro metabolite screening, monkey liver microsomes; format: in vitro ADME; conditions: NHP, N=2
Protocol: (§2) [^14C]EC-18 or the positive control (7-ethoxycoumarin; 7-EC) reacted with microsomes prepared from hepatocytes of rats, dogs, monkeys, and humans, with or without cofactors, for 60 and 120 min. Then, the residual EC-18 concentration over time was measured by LC-RID ([^14C]EC-18) or LC-MS/MS (7-EC) (FIG. 63 and FIG. 64).
(§3) The LC-RID chromatographic profiles of radioactive metabolites produced in the 2-hr incubation reaction mixtures of the same test systems A, B, and C used to assess the metabolic and non-metabolic elimination rates of EC-18 were compared to the LC-UV chromatographic profiles of the synthetic reference material. […] The relative radioactivity of EC-18 accounted for 42-67% of total radioactivity. The peaks designated as M2, M3, and M5 were also determined in all species, and their relative radioactivity accounted for 12-34% of total radioactivity. The peaks of M4 and M6 were determined in monkeys and humans. M1 was abundantly detected in all species, but it was assumed to be a peak of early elution. The LC-UV chromatograms of reaction mixtures in each test system (FIGS. 65A-65C) and the relative radioactivity of the screened metabolites are shown in Table 25.

[7] = In vitro metabolite screening, dog liver microsomes; format: in vitro ADME; conditions: N=2
Protocol: as §2, §3

[8] = EC-18 10 mg/kg oral daily from day 1, 10 mg/kg
[9] = EC-18 50 mg/kg oral daily from day 1, 50 mg/kg
[10] = EC-18 250 mg/kg oral daily from day 1, 250 mg/kg
[11] = A (NADPH added), [14C]EC-18 2 hrs
[12] = B (NADPH, PAPS, UDPGA added), 2 hrs

## CCCCC/C=C\C/C=C\CCCCCCCC(=O)OC(COC(C)=O)COC(=O)CCCCCCCCCCCCCCC (stereo not drawn) [EC-18, 1-palmitoyl-2-linoleoyl-3-acetylglycerol]
[1]; 250 mg/kg, from the 18th day after irradiation to the end
  radiation-induced weight loss vs positive control cohort: significantly reduced
[1]; 50 mg/kg daily
  improvement of survival vs control group: 2 fold
[1]; 250 mg/kg daily
  improvement of survival vs control group: 4 fold
[1]; EC-18 10 mg/kg
  ≥10% Body Weight Loss, %: 85%
  ≥20% Body Weight Loss, %: 70%
[1]; [8]
  Average life span: 22.3 days
  Median survival: 17 days
  No. of mice that survived/total: 4/20
  Survivability / Survival: 40%
[1]; EC-18 50 mg/kg
  ≥10% Body Weight Loss, %: 55%
  ≥20% Body Weight Loss, %: 35%
[1]; [9]
  Average life span: 19.3 days
  Median survival: 20 days
  No. of mice that survived/total: 8/20
  Survivability / Survival: 20%
[1]; EC-18 250 mg/kg
  ≥10% Body Weight Loss, %: 15%
  ≥20% Body Weight Loss, %: 15%
[1]; [10]
  Average life span: 17.9 days
  Median survival: 30 days
  No. of mice that survived/total: 16/20
[1]; two higher doses (50 and 250 mg/kg)
  severe weight loss: significantly prevented severe weight loss
[2]
  AUC0-last in lymphatic fluid relative to whole blood: 41 times
  Cmax in lymphatic fluid relative to whole blood: 31 times
[2]; Lymphatic Fluid
  Tmax: 7.0 h
[2]; Whole Blood, fasted
  Tmax: 3.8 h
CYP1A2; 1 μM
  Enzyme Activity CYP1A2: 0.33 ± 0.04 pmol/106 Cells/Min
CYP1A2; 10 μM
  Enzyme Activity CYP1A2: 0.38 ± 0.06 pmol/106 Cells/Min
CYP1A2; 100 μM
  Enzyme Activity CYP1A2: 0.33 ± 0.04 pmol/106 Cells/Min
CYP1A2; up to 100 μM
  potential to induce CYP1A2: no potential to induce
NZW rabbit; DRF study, 0, 125, 250, 500 mg/kg
  findings: No specific findings
NZW rabbit; DRF study, 250 mg/kg dose group, day 8 of pregnancy, attributed to loss of appetite before dosing
  mortality: A single case of death
NZW rabbit; definitive study, 0, 125, 250, 500 mg/kg
  mortality: No dead animals
[3]
  NOAEL at 13 days: 500 mg/kg/day
[4]
  inducible effects on chromosomal aberration: EC-18 didn't have
SD rat; DRF study, Oral 11 days
  significant differences in implantation rate, male-to-female ratio of fetuses, fetal mortality rate vs control: There were no
SD rat; DRF study, Oral 11 days (day-7 to day-17 of pregnancy)
  mortality: No dead animals
SD rat; definitive study, Oral 11 days
  findings: No specific findings
  mortality: No dead animals
[5]
  NOAEL at 11 days: 2000 mg/kg/day
[6]; [11]
  Mean Peak Area in LC-RID: 46.8%
[6]; [12]
  Mean Peak Area in LC-RID: 46.0%
[6]; C (no cofactor added), 2 hrs
  Mean Peak Area in LC-RID: 41.8%
[7]; [11]
  Mean Peak Area in LC-RID: 52.6%
[7]; [12]
  Mean Peak Area in LC-RID: 54.3%
[7]; C (no cofactor added), 2 hrs
  Mean Peak Area in LC-RID: 56.6%
